Laboratory results from paper PMC11882969 (Nature Communications, 2025).
Values joined by “and” are separate entries in the source; they are usually repeats but may differ in a detail not shown here. Equal values may be shown once. Read-outs that look alike come from different tables or passages of the source.

Target: hCB1 (Homo sapiens, UniProt P21554)
Assay: bioSensAll ebBRET signaling profiling, hCB1
Type: cell-based
Set-up: host or cells: HEK293SL cells, transient PEI transfection
Conditions: for Gi1 hCB1 response: Gi1 biosensor; for Gi1 hCB1 / GoB hCB1: single replicate values, FigS6a; for Emax [95% CI]: normalized to CP-55,940; for EC50: read-out: EC50 [95% CI]
[1] = Log [Compound] (M) -13, individual replicate values

Sequence of hCB1 (P21554 whole entry): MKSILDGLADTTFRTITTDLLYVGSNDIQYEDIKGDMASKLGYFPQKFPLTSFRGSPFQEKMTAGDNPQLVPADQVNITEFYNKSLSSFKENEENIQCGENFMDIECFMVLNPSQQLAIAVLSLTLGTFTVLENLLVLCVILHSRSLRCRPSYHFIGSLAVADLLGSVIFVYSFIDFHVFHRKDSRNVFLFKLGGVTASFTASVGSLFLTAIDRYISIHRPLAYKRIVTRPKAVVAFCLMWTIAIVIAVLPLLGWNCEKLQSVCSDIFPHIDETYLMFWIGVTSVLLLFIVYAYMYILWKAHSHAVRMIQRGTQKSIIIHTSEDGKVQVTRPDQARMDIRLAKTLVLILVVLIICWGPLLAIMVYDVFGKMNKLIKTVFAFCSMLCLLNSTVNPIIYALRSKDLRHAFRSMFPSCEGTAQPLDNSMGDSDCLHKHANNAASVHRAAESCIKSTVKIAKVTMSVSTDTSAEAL

Compound: Cc1cc(C(=O)N2CC3(CCC3)[C@@H]2[C@H]2CCCO2)nn1-c1cccc(C(F)(F)F)c1 (single isomer, unassigned) [compound 430]
- Gi1 hCB1 response (Log [Compound] (M) -4.22186): 4.286
- Gi1 hCB1 response (Log [Compound] (M) -4.63927): -17.6928
- Gi1 hCB1 response (Log [Compound] (M) -5.05788): -21.811
- Gi1 hCB1 response (Log [Compound] (M) -5.47381): -11.1127
- Gi1 hCB1 response (Log [Compound] (M) -5.89285): -12.5003
- Gi1 hCB1 response (Log [Compound] (M) -6.31878): -6.681
- Gi1 hCB1 response (Log [Compound] (M) -6.72585): 6.524
- Gi1 hCB1 response (Log [Compound] (M) -7.14267): -2.6525
- Gi1 hCB1 response (Log [Compound] (M) -7.55284): 0.7047
- Gi1 hCB1 response (Log [Compound] (M) -8): -4.174
- Gi1 hCB1 response (Log [Compound] (M) -8.22186): 0.4361
- Gi1 hCB1 response (Log [Compound] (M) -8.39794): -4.779
- Gi1 hCB1 response (Log [Compound] (M) -8.68787): 4.89
- Gi1 hCB1 response (Log [Compound] (M) -9.15521): -2.764
- Gi1 hCB1 response (Log [Compound] (M) -9.61989): -2.876
- Gi1 hCB1 response (Log [Compound] (M) -10.0969): -2.115
- Gi1 hCB1 response (Log [Compound] (M) -10.5529): 4.689
- Gi1 hCB1 response (Log [Compound] (M) -11.0177): -4.667
- Gi1 hCB1 response (Log [Compound] (M) -11.4949): -5.853
- Gi1 hCB1 response (Log [Compound] (M) -11.9208): -0.9963
- Gi1 hCB1 response (Log [Compound] (M) -12.3979): 1.4433
- Gi1 hCB1 response (Log [Compound] (M) -12.8861): -2.25
- Gi1 hCB1 response [1]: 4.375 and -8.248
- Gi1 hCB1 (Log [Compound] (M) -4.22186): 3.789
- GoB hCB1 (Log [Compound] (M) -4.22186): 6.14
- Gi1 hCB1 (Log [Compound] (M) -4.63927): -1.761
- GoB hCB1 (Log [Compound] (M) -4.63927): -3.176
- Gi1 hCB1 (Log [Compound] (M) -5.05788): -2.054
- GoB hCB1 (Log [Compound] (M) -5.05788): -0.4061
- Gi1 hCB1 (Log [Compound] (M) -5.47381): 0.08902
- GoB hCB1 (Log [Compound] (M) -5.47381): 1.896
- Gi1 hCB1 (Log [Compound] (M) -5.89285): 0.7519
- GoB hCB1 (Log [Compound] (M) -5.89285): 0.547
- Gi1 hCB1 (Log [Compound] (M) -6.31878): 0.1815
- GoB hCB1 (Log [Compound] (M) -6.31878): 1.86
- Gi1 hCB1 (Log [Compound] (M) -6.72585): 1.1836
- GoB hCB1 (Log [Compound] (M) -6.72585): 4.665
- Gi1 hCB1 (Log [Compound] (M) -7.14267): 0.9678
- GoB hCB1 (Log [Compound] (M) -7.14267): 2.363
- Gi1 hCB1 (Log [Compound] (M) -7.55284): 0.274
- GoB hCB1 (Log [Compound] (M) -7.55284): 5.3306
- Gi1 hCB1 (Log [Compound] (M) -8): 0.5207
- GoB hCB1 (Log [Compound] (M) -8): 3.155
- Gi1 hCB1 (Log [Compound] (M) -8.22186): 0.08902
- GoB hCB1 (Log [Compound] (M) -8.22186): -0.8557
- Gi1 hCB1 (Log [Compound] (M) -8.39794): 1.23
- GoB hCB1 (Log [Compound] (M) -8.39794): 3.334
- Gi1 hCB1 (Log [Compound] (M) -8.68787): 1.214
- GoB hCB1 (Log [Compound] (M) -8.68787): -1.521
- Gi1 hCB1 (Log [Compound] (M) -9.15521): 1.245
- GoB hCB1 (Log [Compound] (M) -9.15521): -0.6579
- Gi1 hCB1 (Log [Compound] (M) -9.61989): 2.463
- GoB hCB1 (Log [Compound] (M) -9.61989): 0.4211
- Gi1 hCB1 (Log [Compound] (M) -10.0969): 1.338
- GoB hCB1 (Log [Compound] (M) -10.0969): -1.125
- Gi1 hCB1 (Log [Compound] (M) -10.5529): 0.1353
- GoB hCB1 (Log [Compound] (M) -10.5529): -0.9456
- Gi1 hCB1 (Log [Compound] (M) -11.0177): 0.5053
- GoB hCB1 (Log [Compound] (M) -11.0177): 3.37
- Gi1 hCB1 (Log [Compound] (M) -11.4949): 0.5207
- GoB hCB1 (Log [Compound] (M) -11.4949): 5.385
- Gi1 hCB1 (Log [Compound] (M) -11.9208): 1.523
- GoB hCB1 (Log [Compound] (M) -11.9208): 2.741
- Gi1 hCB1 (Log [Compound] (M) -12.3979): 0.7674
- GoB hCB1 (Log [Compound] (M) -12.3979): 3.263
- Gi1 hCB1 (Log [Compound] (M) -12.8861): 0.2586
- GoB hCB1 (Log [Compound] (M) -12.8861): 4.072
- Gi1 hCB1 (Log [Compound] (M) -13): 1.954 and 3.465
- GoB hCB1 (Log [Compound] (M) -13): 3.838 and 3.119

Compound: Cc1cc(C(=O)N2CC3(CCC3)[C@H]2[C@H]2CCCO2)nn1-c1cccc(C(F)(F)F)c1 [‘1651]
- Gi1 hCB1 response (Log [Compound] (M) -4.22186): 137.59
- Gi1 hCB1 response (Log [Compound] (M) -4.63927): 96.9225
- Gi1 hCB1 response (Log [Compound] (M) -5.47381): 59.4112
- Gi1 hCB1 response (Log [Compound] (M) -5.89285): 34.5455
- Gi1 hCB1 response (Log [Compound] (M) -6.31878): 22.4595
- Gi1 hCB1 response (Log [Compound] (M) -6.72585): 13.9098
- Gi1 hCB1 response (Log [Compound] (M) -7.14267): 3.39
- Gi1 hCB1 response (Log [Compound] (M) -7.55284): 4.644
- Gi1 hCB1 response (Log [Compound] (M) -8): -4.488
- Gi1 hCB1 response (Log [Compound] (M) -8.22186): -3.346
- Gi1 hCB1 response (Log [Compound] (M) -8.39794): -8.628
- Gi1 hCB1 response (Log [Compound] (M) -8.68787): -2.138
- Gi1 hCB1 response (Log [Compound] (M) -9.15521): 13.7307
- Gi1 hCB1 response (Log [Compound] (M) -9.61989): 0.5704
- Gi1 hCB1 response (Log [Compound] (M) -10.0969): -10.7993
- Gi1 hCB1 response (Log [Compound] (M) -10.5529): 1.622
- Gi1 hCB1 response (Log [Compound] (M) -11.0177): 3.525
- Gi1 hCB1 response (Log [Compound] (M) -11.4949): -1.466
- Gi1 hCB1 response (Log [Compound] (M) -11.9208): -11.3141
- Gi1 hCB1 response (Log [Compound] (M) -12.3979): -0.1682
- Gi1 hCB1 response (Log [Compound] (M) -12.8861): 6.054
- Gi1 hCB1 response [1]: -5.092 and 7.285
- Gi1 hCB1 (Log [Compound] (M) -4.22186): 86.9769
- GoB hCB1 (Log [Compound] (M) -4.22186): 103.232
- Gi1 hCB1 (Log [Compound] (M) -4.63927): 76.9098
- GoB hCB1 (Log [Compound] (M) -4.63927): 73.1818
- Gi1 hCB1 (Log [Compound] (M) -5.05788): 64.2374
- GoB hCB1 (Log [Compound] (M) -5.05788): 61.4566
- Gi1 hCB1 (Log [Compound] (M) -5.47381): 51.5496
- GoB hCB1 (Log [Compound] (M) -5.47381): 47.4476
- Gi1 hCB1 (Log [Compound] (M) -5.89285): 27.4072
- GoB hCB1 (Log [Compound] (M) -5.89285): 30.9928
- Gi1 hCB1 (Log [Compound] (M) -6.31878): 15.521
- GoB hCB1 (Log [Compound] (M) -6.31878): 20.7963
- Gi1 hCB1 (Log [Compound] (M) -6.72585): 7.211
- GoB hCB1 (Log [Compound] (M) -6.72585): 12.2902
- Gi1 hCB1 (Log [Compound] (M) -7.14267): 2.849
- GoB hCB1 (Log [Compound] (M) -7.14267): 6.553
- Gi1 hCB1 (Log [Compound] (M) -7.55284): 1.862
- GoB hCB1 (Log [Compound] (M) -7.55284): 3.478
- Gi1 hCB1 (Log [Compound] (M) -8): 1.7386
- GoB hCB1 (Log [Compound] (M) -8): 4.539
- Gi1 hCB1 (Log [Compound] (M) -8.22186): 1.384
- GoB hCB1 (Log [Compound] (M) -8.22186): -0.5679
- Gi1 hCB1 (Log [Compound] (M) -8.39794): 3.142
- GoB hCB1 (Log [Compound] (M) -8.39794): 1.554
- Gi1 hCB1 (Log [Compound] (M) -8.68787): 2.895
- GoB hCB1 (Log [Compound] (M) -8.68787): -1.036
- Gi1 hCB1 (Log [Compound] (M) -9.15521): 0.4282
- GoB hCB1 (Log [Compound] (M) -9.15521): -2.079
- Gi1 hCB1 (Log [Compound] (M) -9.61989): 2.402
- GoB hCB1 (Log [Compound] (M) -9.61989): 0.2413
- Gi1 hCB1 (Log [Compound] (M) -10.0969): 1.754
- GoB hCB1 (Log [Compound] (M) -10.0969): 3.298
- Gi1 hCB1 (Log [Compound] (M) -10.5529): 4.329
- GoB hCB1 (Log [Compound] (M) -10.5529): 1.32
- Gi1 hCB1 (Log [Compound] (M) -11.0177): 1.137
- GoB hCB1 (Log [Compound] (M) -11.0177): 2.867
- Gi1 hCB1 (Log [Compound] (M) -11.4949): 1.492
- GoB hCB1 (Log [Compound] (M) -11.4949): 0.4571
- Gi1 hCB1 (Log [Compound] (M) -11.9208): 0.7057
- GoB hCB1 (Log [Compound] (M) -11.9208): 3.784
- Gi1 hCB1 (Log [Compound] (M) -12.3979): 3.419
- GoB hCB1 (Log [Compound] (M) -12.3979): 6.338
- Gi1 hCB1 (Log [Compound] (M) -12.8861): 4.113
- GoB hCB1 (Log [Compound] (M) -12.8861): 5.3306
- Gi1 hCB1 (Log [Compound] (M) -13): -0.9593 and 2.509
- GoB hCB1 (Log [Compound] (M) -13): 4.899 and 2.867
- pEC50 [95% CI] (hCB1 Gi1): 5.5 [5.4 – 5.6]
- Emax [95% CI] (hCB1 Gi1): 89 [84 – 94]
- pEC50 [95% CI] (hCB1 GoB): 4.7 [4.1 – 5.4]
- Emax [95% CI] (hCB1 GoB): 152 [94 – 208]
- EC50 (hCB1 Gi1): 3.03 µM
- EC50 (hCB1 GoB): 19.8 µM
